The values below come from publication PMC11148078, “Potent activity of polymyxin B is associated with long-lived super-stoichiometric accumulation mediated by weak-affinity binding to lipid A” (Nature Communications, 2024).

Bridge positions count the residues as written; N and C are the ends. Square brackets hold non-standard residues; d marks the D form. Peptide text beside a SMILES is read from it. * marks the point of attachment. X1 = CC[C@H](C)CCCCC(=O)*; Dab = NCC[C@H](N)C(=O)O

Assay [1] concerns wild-type E. coli cells. Kind of assay: Whole cell SPR, wild-type E. coli. It counts as binding. The procedure:
Bacterial strains were grown in LB or LB with 0.2% arabinose and carbenicillin (50 μg/mL) to log phase (OD600 approximately 0.4–0.6), centrifuged for 10 min at 2500 × g (3500 rpm using a tabletop centrifuge), and re-suspended in PBS to a final OD600 of approximately 5. SPR on whole bacterial cells was performed and analyzed as described for OMVs on C1 chip, but with an additional carry-over wash prior to the capture. Regeneration of the chip after whole cell binding also required additional steps ([…] flow rate): (1) PBS supplemented with 32 mM MgCl2 for 120 s, (2) 2.5 M NaCl for 30 s, (3) 0.5% SDS (Desorb 1, Cytiva) for 60 s with carry over controls between.

In assay [2] the target is resistant-OMVs. The assay can be described thus: SPR steady-state affinity of reversible binding, resistant-OMVs. Also noted: species or system E. coli. The note with it: no pre-saturation; n=4 (polymyxin B), n=3 (PMBN), (SD); read-out: Apparent KD. The procedure:
An apparent-KD was measured for the reversible saw-tooth binding profile where polymyxin B was titrated over an OMV surface pre-saturated with the stable binding component (Supplementary Information Fig. S11B). […] No pre-saturation was necessary when using resistant-OMVs or PMBN as these lack the stable component (Fig. 2B, D–F).
Binding and kinetic analysis of SPR-OMV assays
To determine the apparent- KD of the reversible binding event of polymyxin B, single-cycle kinetics were performed as described in Materials and Methods. After OMVs were loaded, 5 µM polymyxin B was injected for 360 sec ([…] flow rate) followed by 120 sec dissociations to saturate the stable-binding population prior to the sample injections. The base-to-peak value of each trace was determined from double-referenced traces (reference 1: - OMVs/ + compound channel; reference 2: + OMVs/ - compound) exported from the Biacore S200 evaluation software into PRISM 9 software. The change in RU with each pulse was plotted over the concentration and the KD determined by fitting a non-linear regression, one-site total function with background parameter set to 0 (GraphPad Prism version 9.3.1 for Mac, GraphPad Software, San Diego, California USA, www.graphpad.com). […]

Take `CC(C)C[C@@H]1NC(=O)[C@@H](Cc2ccccc2)NC(=O)[C@H](CCN)NC(=O)[C@@H](NC(=O)[C@H](CCN)NC(=O)[C@@H](N)[C@@H](C)O)CCNC(=O)[C@H]([C@@H](C)O)NC(=O)[C@H](CCN)NC(=O)[C@H](CCN)NC1=O` [PMBN] (H-T[Dab][Dab][Dab][dF]L[Dab][Dab]T; lactam 3-C): the “SPR binding profile” value in assay [1] is given as “exhibited only weak, saw-tooth binding”. In assay [2], the Kd was 371 nM.
Taken in the same sequence, the figures for `CC[C@H](C)CCCCC(=O)N[C@@H](CCN)C(=O)N[C@H](C(=O)N[C@@H](CCN)C(=O)N[C@H]1CCNC(=O)[C@H]([C@@H](C)O)NC(=O)[C@H](CCN)NC(=O)[C@H](CCN)NC(=O)[C@H](CC(C)C)NC(=O)[C@@H](Cc2ccccc2)NC(=O)[C@H](CCN)NC1=O)[C@@H](C)O` [Polymyxin B] (X1-[Dab]T[Dab][Dab][Dab][dF]L[Dab][Dab]T; lactam 4-C (inferred); N-terminus assumed) were “same polymyxin B binding profiles were observed” and 273 nM.
